According to patent US11053204B2, “Pyrimidinyloxy benzene derivatives as herbicides” (FMC Corporation, priority 2015, dated 2021):

Key:
Format in all cases: in vivo
[1] = system: ducksalad (Heteranthera limosa); assay: Test B flooded paddy test, plant response rating; conditions: 250 g ai/ha; Flood; scale of 0 to 100 where 0 is no effect and 100 is complete control; 13 to 15 days
How it was run: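 Pots were flooded to 3 cm above the soil surface at treatment, compound applied directly to the paddy water, and that depth held throughout. Plants were kept in a greenhouse for 13 to 15 days, then visually rated against untreated controls.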

[2] = system: ragweed (common ragweed, Ambrosia elatior); assay: Test A preemergence, visual injury rating; conditions: for Ragweed plant response rating: 0 to 100 scale (0 no effect, 100 complete control)
How it was run: (§1)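 Injury scores run from 0, no effect, to 100, complete control, judged by eye against untreated plants roughly 10 days after treatment. Chemicals carried a surfactant in a non-phytotoxic solvent and went onto loam–sand soil preemergence or onto one- to two-leaf seedlings postemergence.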

[3] = system: giant foxtail (Setaria faberii); assay: Test A preemergence, visual injury rating; conditions: for Foxtail, Giant plant response rating: 0 to 100 scale (0 no effect, 100 complete control)
How it was run: as §1

[4] = system: barnyardgrass (Echinochloa crus-galli); assay: Test A preemergence, visual injury rating; conditions: for Barnyardgrass plant response rating: 0 to 100 scale (0 no effect, 100 complete control)
How it was run: as §1

[5] = system: Italian ryegrass (Lolium multiflorum); assay: Test A preemergence, visual injury rating; conditions: for Ryegrass, Italian plant response rating: 0 to 100 scale (0 no effect, 100 complete control)
How it was run: as §1

[6] = system: pigweed (Amaranthus retroflexus); assay: Test A preemergence, visual injury rating; conditions: for Pigweed plant response rating: 0 to 100 scale (0 no effect, 100 complete control)
How it was run: as §1

[7] = system: kochia (Kochia scoparia); assay: Test A preemergence, visual injury rating; conditions: for Kochia plant response rating: 0 to 100 scale (0 no effect, 100 complete control)
How it was run: as §1

[8] = system: velvetleaf (Abutilon theophrasti); assay: Test C postemergence, plant response rating; conditions: for Velvetleaf plant response rating: scale 0 to 100 (0 no effect, 100 complete control)
How it was run: (§2)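 Visual injury score, 0 = no effect, 100 = complete control, assigned against untreated controls after 13 to 15 d in the greenhouse. Compounds were applied in a surfactant-containing non-phytotoxic solvent mix, preemergence to seeded loam/sand or silt loam soil, or postemergence to 1- to 4-leaf plants (2 to 18 cm).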

[9] = system: corn (Zea mays); assay: Test C postemergence, plant response rating; conditions: for Corn plant response rating: scale 0 to 100 (0 no effect, 100 complete control)
How it was run: as §2

[10] = system: crabgrass, large (large crabgrass, Digitaria sanguinalis); assay: Test C postemergence, plant response rating; conditions: for Crabgrass, Large plant response rating: scale 0 to 100 (0 no effect, 100 complete control)
How it was run: as §2

[11] = system: lambsquarters (Chenopodium album); assay: Test C postemergence, plant response rating; conditions: for Lambsquarters plant response rating: scale 0 to 100 (0 no effect, 100 complete control)
How it was run: as §2

[12] = system: ragweed (common ragweed, Ambrosia elatior); assay: Test C postemergence, plant response rating; conditions: for Ragweed plant response rating: scale 0 to 100 (0 no effect, 100 complete control)
How it was run: as §2

[13] = system: oat, wild (wild oat Avena fatua); assay: Test C postemergence, plant response rating; conditions: for Oat, Wild plant response rating: scale 0 to 100 (0 no effect, 100 complete control)
How it was run: as §2

[14] = system: barnyardgrass (Echinochloa crus-galli); assay: Test C postemergence, plant response rating; conditions: for Plant response rating, Barnyardgrass: scale 0 to 100; for Barnyardgrass plant response rating: scale 0 to 100 (0 no effect, 100 complete control)
How it was run: as §2

[15] = system: nutsedge, yellow (yellow nutsedge, Cyperus esculentus); assay: Test C postemergence, plant response rating; conditions: for Nutsedge, Yellow plant response rating: scale 0 to 100 (0 no effect, 100 complete control)
How it was run: as §2

[16] = system: kochia (Kochia scoparia); assay: Test C postemergence, plant response rating; conditions: for Kochia plant response rating: scale 0 to 100 (0 no effect, 100 complete control)
How it was run: as §2

[17] = system: morningglory (Ipomoea coccinea); assay: Test C postemergence, plant response rating; conditions: for Morningglory plant response rating: scale 0 to 100 (0 no effect, 100 complete control)
How it was run: as §2

[18] = 31 g ai/ha, 0 to 100 scale, 0 no effect, 100 complete control

Compound: O=C(OCC(F)(F)F)c1c(Br)cccc1Oc1ncc(Cl)cn1 [Compound 35]
- Plant response rating, Ducksalad [1]: 50
- Ragweed plant response rating ([2]; 125 g ai/ha): 0
- Ragweed plant response rating ([2]; 500 g ai/ha): 0
- Foxtail, Giant plant response rating ([3]; 125 g ai/ha): 100
- Foxtail, Giant plant response rating ([3]; 500 g ai/ha): 100
- Barnyardgrass plant response rating ([4]; 125 g ai/ha): 70
- Barnyardgrass plant response rating ([4]; 500 g ai/ha): 90
- Ryegrass, Italian plant response rating ([5]; 125 g ai/ha): 0
- Ryegrass, Italian plant response rating ([5]; 500 g ai/ha): 30
- Pigweed plant response rating ([6]; 125 g ai/ha): 100
- Pigweed plant response rating ([6]; 500 g ai/ha): 100
- Kochia plant response rating ([7]; 125 g ai/ha): 30
- Kochia plant response rating ([7]; 500 g ai/ha): 80
- Plant response rating, Velvetleaf ([8]; 16 g ai/ha, scale 0 to 100): 40
- Plant response rating, Velvetleaf ([8]; 31 g ai/ha, scale 0 to 100): 30
- Velvetleaf plant response rating ([8]; 62 g ai/ha): 35
- Velvetleaf plant response rating ([8]; 125 g ai/ha): 40
- Plant response rating, Corn ([9]; 16 g ai/ha, scale 0 to 100): 5
- Plant response rating, Corn ([9]; 31 g ai/ha, scale 0 to 100): 10
- Corn plant response rating ([9]; 62 g ai/ha): 20
- Corn plant response rating ([9]; 125 g ai/ha): 20
- Plant response rating, Crabgrass, Large ([10]; 16 g ai/ha, scale 0 to 100): 10
- Plant response rating, Crabgrass, Large ([10]; 31 g ai/ha, scale 0 to 100): 10
- Crabgrass, Large plant response rating ([10]; 62 g ai/ha): 15
- Crabgrass, Large plant response rating ([10]; 125 g ai/ha): 10
- Plant response rating, Lambsquarters ([11]; 16 g ai/ha, scale 0 to 100): 50
- Plant response rating, Lambsquarters ([11]; 31 g ai/ha, scale 0 to 100): 40
- Lambsquarters plant response rating ([11]; 62 g ai/ha): 65
- Lambsquarters plant response rating ([11]; 125 g ai/ha): 70
- Plant response rating, Ragweed ([12]; 16 g ai/ha, scale 0 to 100): 0
- Plant response rating, Ragweed ([12]; 31 g ai/ha, scale 0 to 100): 5
- Ragweed plant response rating ([12]; 62 g ai/ha): 10
- Ragweed plant response rating ([12]; 125 g ai/ha): 20
- Plant response rating, Oat, Wild ([13]; 16 g ai/ha, scale 0 to 100): 0
- Plant response rating, Oat, Wild ([13]; 31 g ai/ha, scale 0 to 100): 0
- Oat, Wild plant response rating ([13]; 62 g ai/ha): 0
- Oat, Wild plant response rating ([13]; 125 g ai/ha): 0
- Plant response rating, Barnyardgrass ([14]; 16 g ai/ha): 5
- Plant response rating, Barnyardgrass ([14]; 31 g ai/ha): 5
- Barnyardgrass plant response rating ([14]; 62 g ai/ha): 10
- Barnyardgrass plant response rating ([14]; 125 g ai/ha): 15
- Plant response rating, Nutsedge, Yellow ([15]; 16 g ai/ha, scale 0 to 100): 0
- Plant response rating, Nutsedge, Yellow ([15]; 31 g ai/ha, scale 0 to 100): 0
- Nutsedge, Yellow plant response rating ([15]; 62 g ai/ha): 0
- Nutsedge, Yellow plant response rating ([15]; 125 g ai/ha): 5
- Plant response rating, Kochia ([16]; 16 g ai/ha, scale 0 to 100): 5
- Plant response rating, Kochia ([16]; 31 g ai/ha, scale 0 to 100): 40
- Kochia plant response rating ([16]; 62 g ai/ha): 60
- Kochia plant response rating ([16]; 125 g ai/ha): 90
- Plant response rating, Morningglory ([17]; 16 g ai/ha, scale 0 to 100): 40
- Plant response rating, Morningglory ([17]; 31 g ai/ha, scale 0 to 100): 50
- Morningglory plant response rating ([17]; 62 g ai/ha): 60
- Morningglory plant response rating ([17]; 125 g ai/ha): 60

Compound: O=C(CCCC(F)(F)F)c1c(Br)cccc1Oc1ncc(Cl)cn1 [Compound 77]
- Plant response rating, Ducksalad [1]: 85
- Plant response rating, Ragweed [2, 18]: 0
- Ragweed plant response rating ([2]; 125 g ai/ha): 0
- Plant response rating, Foxtail, Giant [3, 18]: 100
- Foxtail, Giant plant response rating ([3]; 125 g ai/ha): 100
- Plant response rating, Barnyardgrass [4, 18]: 20
- Barnyardgrass plant response rating ([4]; 125 g ai/ha): 100
- Plant response rating, Ryegrass, Italian [5, 18]: 0
- Ryegrass, Italian plant response rating ([5]; 125 g ai/ha): 70
- Plant response rating, Pigweed [6, 18]: 100
- Pigweed plant response rating ([6]; 125 g ai/ha): 100
- Plant response rating, Kochia [7, 18]: 80
- Kochia plant response rating ([7]; 125 g ai/ha): 100
- Plant response rating, Velvetleaf ([8]; 16 g ai/ha, scale of 0 to 100): 35
- Plant response rating, Velvetleaf ([8]; 31 g ai/ha, scale 0 to 100): 50
- Velvetleaf plant response rating ([8]; 62 g ai/ha): 55
- Velvetleaf plant response rating ([8]; 125 g ai/ha): 65
- Plant response rating, Corn ([9]; 16 g ai/ha, scale of 0 to 100): 15
- Plant response rating, Corn ([9]; 31 g ai/ha, scale 0 to 100): 15
- Corn plant response rating ([9]; 62 g ai/ha): 20
- Corn plant response rating ([9]; 125 g ai/ha): 25
- Plant response rating, Crabgrass, Large ([10]; 16 g ai/ha, scale of 0 to 100): 10
- Plant response rating, Crabgrass, Large ([10]; 31 g ai/ha, scale 0 to 100): 25
- Crabgrass, Large plant response rating ([10]; 62 g ai/ha): 30
- Crabgrass, Large plant response rating ([10]; 125 g ai/ha): 30
- Plant response rating, Lambsquarters ([11]; 16 g ai/ha, scale of 0 to 100): 55
- Plant response rating, Lambsquarters ([11]; 31 g ai/ha, scale 0 to 100): 75
- Lambsquarters plant response rating ([11]; 62 g ai/ha): 70
- Lambsquarters plant response rating ([11]; 125 g ai/ha): 90
- Plant response rating, Ragweed ([12]; 16 g ai/ha, scale of 0 to 100): 40
- Plant response rating, Ragweed ([12]; 31 g ai/ha, scale 0 to 100): 40
- Ragweed plant response rating ([12]; 62 g ai/ha): 35
- Ragweed plant response rating ([12]; 125 g ai/ha): 70
- Plant response rating, Oat, Wild ([13]; 16 g ai/ha, scale of 0 to 100): 0
- Plant response rating, Oat, Wild ([13]; 31 g ai/ha, scale 0 to 100): 5
- Oat, Wild plant response rating ([13]; 62 g ai/ha): 10
- Oat, Wild plant response rating ([13]; 125 g ai/ha): 15
- Plant response rating, Barnyardgrass ([14]; 16 g ai/ha): 15
- Plant response rating, Barnyardgrass ([14]; 31 g ai/ha): 25
- Barnyardgrass plant response rating ([14]; 62 g ai/ha): 25
- Barnyardgrass plant response rating ([14]; 125 g ai/ha): 30
- Plant response rating, Nutsedge, Yellow ([15]; 16 g ai/ha, scale of 0 to 100): 5
- Plant response rating, Nutsedge, Yellow ([15]; 31 g ai/ha, scale 0 to 100): 10
- Nutsedge, Yellow plant response rating ([15]; 62 g ai/ha): 15
- Nutsedge, Yellow plant response rating ([15]; 125 g ai/ha): 15
- Plant response rating, Kochia ([16]; 16 g ai/ha, scale of 0 to 100): 95
- Plant response rating, Kochia ([16]; 31 g ai/ha, scale 0 to 100): 100
- Kochia plant response rating ([16]; 62 g ai/ha): 100
- Kochia plant response rating ([16]; 125 g ai/ha): 100
- Plant response rating, Morningglory ([17]; 16 g ai/ha, scale of 0 to 100): 50
- Plant response rating, Morningglory ([17]; 31 g ai/ha, scale 0 to 100): 85
- Morningglory plant response rating ([17]; 62 g ai/ha): 90
- Morningglory plant response rating ([17]; 125 g ai/ha): 80
